Test results from BigSolDB 2.1.

CC(=O)Oc1ccccc1C(=O)Nc1ncc([N+](=O)[O-])s1
solubility (mole fraction)
Settings	278.15 K	283.15 K	288.15 K	293.15 K	298.15 K	303.15 K	308.15 K	313.15 K	318.15 K	323.15 K
in DMF	0.0665	0.0716	0.077	0.0825	0.0882	0.0934	0.0992	0.106	0.112	0.118
in NMP	0.0891	0.093	0.0964	0.1	0.104	0.107	0.112	0.116	0.119	0.123
in isopropanol	0.000205	0.000239	0.000277	0.000319	0.000367	0.000419	0.000476	0.000542	0.000607	0.000684
in water	1.26e-07	1.66e-07	2.23e-07	2.93e-07	3.81e-07	4.98e-07	6.34e-07	8.11e-07	9.9e-07	1.24e-06
